Laboratory results published in US20140357641A1, “IP receptor agonist heterocyclic compounds” (NOVARTIS AG, priority 2012, published 2014).

Biological target: T1, IP receptor (Homo sapiens, UniProt P43119)
T1 construct: expressed in transfected cells
Test: cAMP accumulation in CHO cells stably expressing the IP receptor (CHO-IP), Perkin Elmer AlphaScreen assay
Format: cell-based
Settings: agonist activity, 1 hour at room temperature
Procedure: Activity of compounds at the IP receptor (IP receptor) is assessed by measuring cAMP accumulation in CHO cells stably expressing the IP receptor (CHO-IP) using the Perkin Elmer AlphaScreen assay. This technology measures the endogenous production of cAMP, in a non-radioactive luminescence proximity homogenous assay. A biological reaction occurs between streptavidin coated donor beads, biotinylated cAMP and anti-cAMP acceptor beads, bringing the donor and acceptor beads close enough together so that upon excitation a fluorescence signal is produced. On production of endogenous cAMP, competition between the biotinylated cAMP and cellular-derived cAMP causes a reduction in the fluorescent signal. The reduction in signal is proportional to the amount of cAMP being produced, thus it is possible to quantify the amount of cAMP being produced on stimulation with agonist.
Test and reference compounds are prepared at 100× [final] in 100% DMSO, and diluted 1:3 using a Biomek Fx (Beckman Coulter). This is followed by an intermediate dilution to give 5× [final] in assay buffer (HBSS containing 5 mM HEPES, 0.1% (w/v) BSA). 5 μL of 5× [final] test compounds, reference compounds and buffer/DMSO control are then transferred to a 384-well white OptiPlate, containing 20 μL CHO-IP cell suspension (15,000 cells/well, prepared from frozen), and plate is incubated at room temperature for 1 hour. A cAMP standard curve is constructed for each experiment (concentration range of 10000 nM to 0.001 nM, in assay buffer) and 25 μL of each concentration added to the last two columns of the assay plate. The incubation is terminated by the addition of lysis buffer (dH2O; 0.3% (v v^−1) Tween-20) containing 20 units mL^−1 streptavidin coated donor beads and biotinylated cAMP (pre-incubated for 30 minutes) and 20 units mL^−1 anti-cAMP acceptor beads, which are added to the lysis buffer just before addition to the assay plate. The assay plate is then incubated at room temperature in the dark, for 60 minutes with gentle shaking, and read on the Envision plate reader (Perkin Elmer).
The raw data of the reference compounds, test compounds and controls are converted into cAMP concentrations, using the cAMP standard curve, in GraphPadPrism (GraphPad Software Inc). EC50 as well as maximal values of the agonist curves are determined using a 4-parameter logistic equation. The % maximum response values of all test compounds are determined using the top of the treprostinil concentration-response curve.

T1 sequence (P43119 whole entry): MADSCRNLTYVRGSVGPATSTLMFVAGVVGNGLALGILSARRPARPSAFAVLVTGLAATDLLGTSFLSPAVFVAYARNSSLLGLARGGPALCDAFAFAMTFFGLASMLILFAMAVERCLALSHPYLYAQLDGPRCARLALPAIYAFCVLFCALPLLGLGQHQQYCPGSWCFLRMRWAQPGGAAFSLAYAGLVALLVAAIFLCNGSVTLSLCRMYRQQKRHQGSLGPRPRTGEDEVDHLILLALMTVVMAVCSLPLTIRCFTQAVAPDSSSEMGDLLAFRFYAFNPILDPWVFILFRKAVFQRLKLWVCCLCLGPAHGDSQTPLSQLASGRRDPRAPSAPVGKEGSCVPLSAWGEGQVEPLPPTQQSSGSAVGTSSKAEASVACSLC

Structure (SMILES)	EC50 [nM]
Cc1ccc(-c2nc3c(nc2-c2ccc(C)cc2)N(CCCC/C=C2/SC(=O)NC2=O)CCC3)cc1 [Example 4, 5-(5-(2,3-Ddi-p-tolyl-7,8-dihydropyrido[2,3-b]pyrazin-5(6H)-yl)pentylidene)thiazolidine-2,4-dione]	2
Cc1ccc(-c2nc3c(nc2-c2ccc(C)cc2)N(CCCCCC2=C(O)CCC2=O)CCC3)cc1 [Example 3, 2-(5-(2,3-Di-p-tolyl-7,8-dihydropyrido[2,3-b]pyrazin-5(6H)-yl)pentyl)-3-hydroxycyclopent-2-enone]	7.68
Cc1ccc(-c2nc3c(nc2-c2ccc(C)cc2)N(CCCCC2SC(=O)NC2=O)CCC3)cc1 (single isomer, unassigned) [1(a), (S)-5-(4-(2,3-di-p-tolyl-7,8-dihydropyrido[2,3-b]pyrazin-5(6H)-yl)butyl)thiazolidine-2,4-dione or (R)-5-(4-(2,3-di-p-tolyl-7,8-dihydropyrido[2,3-b]pyrazin-5(6H)-yl)butyl)thiazolidine-2,4-dione]	3.71
Cc1ccc(-c2nc3c(nc2-c2ccc(C)cc2)N(CCCCC2SC(=O)NC2=O)CCC3)cc1 (single isomer, unassigned) [1(b), (S)-5-(4-(2,3-di-p-tolyl-7,8-dihydropyrido[2,3-b]pyrazin-5(6H)-yl)butyl)thiazolidine-2,4-dione or (R)-5-(4-(2,3-di-p-tolyl-7,8-dihydropyrido[2,3-b]pyrazin-5(6H)-yl)butyl)thiazolidine-2,4-dione]	12
Cc1ccc(-c2nc3c(nc2-c2ccc(C)cc2)N(CCCCC2SC(=O)NC2=O)CCC3)cc1 (racemic) [Example 1, rac-5-(4-(2,3-Di-p-tolyl-7,8-dihydropyrido[2,3-b]pyrazin-5(6H)-yl)butyl)thiazolidine-2,4-dione]	8.91

Other lines, results leading:

EC50 [nM]	Structure (SMILES)
34.3	Cc1ccc(-c2nc3c(nc2-c2ccc(C)cc2)N(CCCCc2cc(O)no2)CCC3)cc1 [Example 8, 5-(4-(2,3-Di-p-tolyl-7,8-dihydropyrido[2,3-b]pyrazin-5(6H)-yl)butyl)isoxazol-3-ol]
165	Cc1ccc(-c2nc3c(nc2-c2ccc(C)cc2)N(CCCCC2=C(O)CCC2=O)CCC3)cc1 [Example 5, 2-(4-(2,3-Ddi-p-tolyl-7,8-dihydropyrido[2,3-b]pyrazin-5(6H)-yl)butyl)-3-hydroxycyclopent-2-enone]
15.3	Cc1ccc(-c2nc3c(nc2-c2ccc(C)cc2)N(CCCCCc2noc(=O)[nH]2)CCC3)cc1 [Example 6.1, 3-(5-(2,3-Di-p-tolyl-7,8-dihydropyrido[2,3-b]pyrazin-5(6H)-yl)pentyl)-1,2,4-oxadiazol-5(4H)-one]
14.7	Cc1ccc(-c2nc3c(nc2-c2ccc(C)cc2)N(CCCCc2noc(=O)[nH]2)CCC3)cc1 [Example 6.2, 3-(4-(2,3-Di-p-tolyl-7,8-dihydropyrido[2,3-b]pyrazin-5(6H)-yl)butyl)-1,2,4-oxadiazol-5(4H)-one]
2.86	Cc1ccc(-c2nc3c(nc2-c2ccc(C)cc2)N(CCCCC2CC(=O)NO2)CCC3)cc1 (centres unmarked) [Example 7, 5-(4-(2,3-Di-p-tolyl-7,8-dihydropyrido[2,3-b]pyrazin-5(6H)-yl)butyl)isoxazolidin-3-one]
28.3	Cc1ccc(-c2nc3c(nc2-c2ccc(C)cc2)N(CCCCCCc2noc(=O)[nH]2)CCC3)cc1 [Example 6, 3-(6-(2,3-Di-p-tolyl-7,8-dihydropyrido[2,3-b]pyrazin-5(6H)-yl)hexyl)-1,2,4-oxadiazol-5(4H)-one]
